Reference: publication PMC7645366 (EMBO Molecular Medicine, 2020)
Where “and” joins values, the source holds several entries; their conditions need not be identical. Equal entries are not always repeated. Where two headings read alike, the source gives them in different places.

Experiments:
PLY [1] = molecular target: T1, PLY (Streptococcus pneumoniae serotype 4, UniProt P0C2J9); type: cell-based
SLO = SLO (Streptococcus pyogenes serotype M1, UniProt P0C0I3); type: cell-based; settings: 100uM; 18 h
SLO, sequence (P0C0I3 34-571 limits assumed): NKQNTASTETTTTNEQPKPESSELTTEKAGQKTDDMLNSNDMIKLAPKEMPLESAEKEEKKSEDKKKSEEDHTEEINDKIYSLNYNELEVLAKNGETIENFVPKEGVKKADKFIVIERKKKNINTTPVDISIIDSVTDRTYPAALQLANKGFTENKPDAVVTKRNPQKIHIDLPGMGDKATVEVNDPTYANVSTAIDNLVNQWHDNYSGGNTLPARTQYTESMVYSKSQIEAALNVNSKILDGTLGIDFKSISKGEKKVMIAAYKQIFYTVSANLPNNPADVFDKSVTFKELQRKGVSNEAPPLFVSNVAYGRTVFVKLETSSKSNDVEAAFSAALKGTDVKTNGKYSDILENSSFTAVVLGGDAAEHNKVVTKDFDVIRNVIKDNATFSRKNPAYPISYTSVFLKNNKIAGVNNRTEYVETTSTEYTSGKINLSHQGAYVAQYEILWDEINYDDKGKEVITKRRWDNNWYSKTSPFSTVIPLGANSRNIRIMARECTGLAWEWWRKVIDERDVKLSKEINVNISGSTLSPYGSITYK

PLY [2] = molecular target: T1, PLY; settings: 18 h
PLY [3] = molecular target: T1, PLY; type: cell-based; settings: 100uM; 18 h
LLO [4] = molecular target: T2, LLO (Listeria monocytogenes serovar 1/2a, UniProt P13128); test: LDH cytotoxicity assay, THP-1 macrophages, LLO; type: cell-based; settings: THP-1, LLO 0.5 μg/ml, 100 μM, 18 h
T2 sequence (P13128 25-529): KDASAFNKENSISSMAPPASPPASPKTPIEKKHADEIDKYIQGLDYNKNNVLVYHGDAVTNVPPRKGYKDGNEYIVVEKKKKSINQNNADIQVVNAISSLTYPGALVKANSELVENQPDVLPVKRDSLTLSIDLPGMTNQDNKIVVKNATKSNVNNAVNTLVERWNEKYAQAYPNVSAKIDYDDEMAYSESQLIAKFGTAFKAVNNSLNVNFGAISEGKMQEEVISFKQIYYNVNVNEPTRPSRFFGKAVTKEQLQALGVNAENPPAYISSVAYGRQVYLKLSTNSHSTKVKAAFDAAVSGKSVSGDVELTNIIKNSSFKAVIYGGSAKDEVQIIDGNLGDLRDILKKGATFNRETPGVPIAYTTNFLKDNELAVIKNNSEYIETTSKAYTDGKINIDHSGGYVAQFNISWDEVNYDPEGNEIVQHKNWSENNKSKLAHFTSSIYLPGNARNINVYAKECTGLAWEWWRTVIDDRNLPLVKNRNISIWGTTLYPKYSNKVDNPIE
Protocol: (§1) Human monocytic leukemia THP‐1 cells (ATCC TIB‐202) were cultivated in R10 medium and maintained at density of 10^6 cells/ml. For differentiation into macrophages, THP‐1 cells were treated for 48 h with 20 ng/ml of phorbol myristate acetate (Sigma).
Cytotoxicity was determined by measuring the activity of lactate dehydrogenase enzyme released into the culture supernatant using the Cytotoxicity Detection kit (Roche) according to the manufacturer's instructions. The percentage cytotoxicity was calculated by ratio to 100% lysis control (0.1% saponin).

LLO [5] = molecular target: T2, LLO; test: Cytokine ELISA, THP-1 macrophages stimulated with LLO; type: cell-based; settings: LLO 0.5 μg/ml, 100uM, 18 h
Protocol: as §1

T1 sequence (P0C2J9 whole entry, looked up): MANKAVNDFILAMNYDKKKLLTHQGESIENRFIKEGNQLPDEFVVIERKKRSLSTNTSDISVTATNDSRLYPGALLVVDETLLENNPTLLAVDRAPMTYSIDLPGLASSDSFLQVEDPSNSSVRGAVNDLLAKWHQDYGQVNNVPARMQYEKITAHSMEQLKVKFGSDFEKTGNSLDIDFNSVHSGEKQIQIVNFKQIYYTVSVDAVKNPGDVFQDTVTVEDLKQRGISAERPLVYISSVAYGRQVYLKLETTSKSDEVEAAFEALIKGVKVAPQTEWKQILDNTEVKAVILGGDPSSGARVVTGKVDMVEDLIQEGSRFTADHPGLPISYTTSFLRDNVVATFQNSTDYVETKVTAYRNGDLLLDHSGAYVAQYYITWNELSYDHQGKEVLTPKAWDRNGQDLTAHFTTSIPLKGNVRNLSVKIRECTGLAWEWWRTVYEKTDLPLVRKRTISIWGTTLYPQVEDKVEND

Compound	cytolysis by PLY in live imaging (PLY [1])	IL-8 levels in THP-1 macrophages (SLO)	% cytotoxicity relative to positive control (lysis buffer), LDH (PLY [2]; 100 μM)	% cytotoxicity relative to positive control (lysis buffer), LDH (PLY [2])	IL-8 levels in THP-1 macrophages (PLY [3])	% cytotoxicity relative to positive control (lysis buffer), LDH (LLO [4]; experiment 1 of 4)	% cytotoxicity relative to positive control (lysis buffer), LDH (LLO [4]; experiment 2 of 4)	% cytotoxicity relative to positive control (lysis buffer), LDH (LLO [4]; experiment 3 of 4)	% cytotoxicity relative to positive control (lysis buffer), LDH (LLO [4]; experiment 4 of 4)	IL-8 levels in THP-1 macrophages (LLO [5]; experiment 1 of 3)	IL-8 levels in THP-1 macrophages (LLO [5]; experiment 2 of 3)	IL-8 levels in THP-1 macrophages (LLO [5]; experiment 3 of 3)
Bovine serum albumin [BSA]	cytolysis											
CC(C)CCC[C@@H](C)[C@H]1CC[C@H]2[C@@H]3CC=C4C[C@@H](O)CC[C@]4(C)[C@H]3CC[C@]12C [CHO, Cholesterol, reference compound]	protection from PLY induced cytolysis	79.6 pg/mL and 72.8 pg/mL and 144.9 pg/mL	27.36% and 42.05% and 42.16%	35.29%	104 pg/mL and 72.9 pg/mL and 80.5 pg/mL	42.88%	43.52%	31.62%	53.89%	112.8 pg/mL	87.2 pg/mL	126.9 pg/mL
